Laboratory results: ChEMBL document CHEMBL5223177, “Pyrazole Ureas as Low Dose, CNS Penetrant Glucosylceramide Synthase Inhibitors for the Treatment of Parkinson's Disease” (ACS Med Chem Lett, 2023)
Numbering of substitutions follows the chain as printed. Active and inactive are the calls of the source. No cut-off for these calls is given here.

Tests used:
rat P-gp = assay: Substrate activity at rat P-gp assessed as efflux ratio at 1 uM; assay type: ADME; conditions: not told
[1] = target: T1, Ceramide glucosyltransferase (Homo sapiens, UniProt Q16739); assay: Inhibition of GCS in human fibroblast; assay type: cell-based
T1 sequence (Q16739 whole entry): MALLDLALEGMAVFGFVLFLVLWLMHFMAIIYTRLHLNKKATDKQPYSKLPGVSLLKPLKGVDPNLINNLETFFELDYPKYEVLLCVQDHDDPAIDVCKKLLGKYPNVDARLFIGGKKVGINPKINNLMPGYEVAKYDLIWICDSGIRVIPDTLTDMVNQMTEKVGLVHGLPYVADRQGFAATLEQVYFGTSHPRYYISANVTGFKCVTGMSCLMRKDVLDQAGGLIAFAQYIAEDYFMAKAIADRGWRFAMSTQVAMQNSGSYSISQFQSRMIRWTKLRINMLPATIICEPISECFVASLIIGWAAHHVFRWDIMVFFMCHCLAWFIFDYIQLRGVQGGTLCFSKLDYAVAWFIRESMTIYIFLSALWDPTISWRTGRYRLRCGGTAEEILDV

[2] = target: T2, 5-hydroxytryptamine receptor 3A (Homo sapiens, UniProt P46098); assay: Antagonist activity at human 5HT3A expressed in HEK293 cells incubated for 1 hr by FLIPR assay; assay type: cell-based
T2 sequence (P46098 whole entry): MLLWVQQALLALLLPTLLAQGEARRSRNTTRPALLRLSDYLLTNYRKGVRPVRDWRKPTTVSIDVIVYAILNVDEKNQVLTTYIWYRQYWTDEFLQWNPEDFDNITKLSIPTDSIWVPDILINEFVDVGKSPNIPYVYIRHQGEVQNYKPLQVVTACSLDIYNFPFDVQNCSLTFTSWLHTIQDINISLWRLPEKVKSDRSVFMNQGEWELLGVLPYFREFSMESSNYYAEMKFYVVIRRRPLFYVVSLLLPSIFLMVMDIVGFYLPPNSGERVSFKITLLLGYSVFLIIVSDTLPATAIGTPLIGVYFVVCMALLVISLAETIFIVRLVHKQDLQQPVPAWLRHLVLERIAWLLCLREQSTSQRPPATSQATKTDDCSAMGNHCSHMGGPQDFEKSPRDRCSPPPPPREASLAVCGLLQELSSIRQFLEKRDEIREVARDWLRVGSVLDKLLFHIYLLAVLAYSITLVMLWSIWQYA

Cytochrome P450 3A4 = Cytochrome P450 3A4 (Homo sapiens, UniProt P08684); assay: Inhibition of CYP3A4 (unknown origin); assay type: ADME
[3] = target: Voltage-gated inwardly rectifying potassium channel KCNH2 (Homo sapiens, UniProt Q12809); assay: Inhibition of human ERG; assay type: toxicity
[4] = Unbound volume of distribution at steady state in rat; assay type: ADME; conditions: in vivo
[5] = Unbound volume of distribution at steady state in dog; assay type: ADME, Canis lupus familiaris; conditions: in vivo
[6] = Protection against PFFs induced alpha-synuclein aggregation in human iPSC derived neurons assessed as reduction in phosphorylated S129 alpha-synuclein level at 1000 nM pretreated for 1 day followed by PFFs stimulation and measured after 14 days by immunocytochemistry analysis; assay type: functional, Neuron; design: scale not given: the % may be the effect or the level left; conditions: time 15 day
Neuron = assay: Protection against PFFs induced lysosomal impairment in human iPSC derived neurons assessed as increase in lysosomal hydrolysis pretreated for 1 day followed by PFFs stimulation and measured after 14 days by immunocytochemistry analysis; assay type: functional, cell-based; conditions: time 15.0 day
[7] = target: T3, Ceramide glucosyltransferase (Homo sapiens) (UniProt Q16739); assay: (§1) Inhibition of GCS in human iPSC derived neurons assessed as reduction in […] GlcCer levels; assay type: cell-based; conditions: Neuron
T3 sequence (whole entry): T1 sequence (Q16739 whole entry)

[8] = target: T1, Ceramide glucosyltransferase; assay: as §1; assay type: cell-based, Neuron
[9] = Protection against PFFs induced alpha-synuclein aggregation in human iPSC derived neurons assessed as reduction in phosphorylated S129 alpha-synuclein level pretreated for 1 day followed by PFFs stimulation and measured after 14 days by immunocytochemistry analysis; assay type: functional, cell-based; conditions: Neuron
[10] = target: T4, Ceramide glucosyltransferase (Mus musculus) (UniProt O88693); assay: In vivo inhibition of GCS in C57 mouse assessed as reduction in brain GlcCer d18:1/18:0 concentration at 30 to 100 mg/kg, po measured after 8 hrs by LC-MS/MS method; assay type: functional, organism-based; conditions: dose 30-100 mg/kg
T4 sequence (whole entry): T1 sequence (Q16739 whole entry) with L8Q, V13L, L20V, A29S, G131A, Y196S, A251S

[11] = target: T4, Ceramide glucosyltransferase (Mus musculus); assay: (§2) In vivo inhibition of GCS in C57 mouse assessed as reduction in brain GlcCer d18:1/18:0 concentration measured after 8 hrs by LC-MS/MS method; assay type: functional
[12] = target: T5, Ceramide glucosyltransferase (Mus musculus, UniProt O88693); assay: as §2; assay type: functional
T5 sequence (O88693 whole entry): T1 sequence (Q16739 whole entry) with L8Q, V13L, L20V, A29S, G131A, Y196S, A251S

Voltage-gated inwardly rectifying potassium channel KCNH2, sequence (Q12809 whole entry): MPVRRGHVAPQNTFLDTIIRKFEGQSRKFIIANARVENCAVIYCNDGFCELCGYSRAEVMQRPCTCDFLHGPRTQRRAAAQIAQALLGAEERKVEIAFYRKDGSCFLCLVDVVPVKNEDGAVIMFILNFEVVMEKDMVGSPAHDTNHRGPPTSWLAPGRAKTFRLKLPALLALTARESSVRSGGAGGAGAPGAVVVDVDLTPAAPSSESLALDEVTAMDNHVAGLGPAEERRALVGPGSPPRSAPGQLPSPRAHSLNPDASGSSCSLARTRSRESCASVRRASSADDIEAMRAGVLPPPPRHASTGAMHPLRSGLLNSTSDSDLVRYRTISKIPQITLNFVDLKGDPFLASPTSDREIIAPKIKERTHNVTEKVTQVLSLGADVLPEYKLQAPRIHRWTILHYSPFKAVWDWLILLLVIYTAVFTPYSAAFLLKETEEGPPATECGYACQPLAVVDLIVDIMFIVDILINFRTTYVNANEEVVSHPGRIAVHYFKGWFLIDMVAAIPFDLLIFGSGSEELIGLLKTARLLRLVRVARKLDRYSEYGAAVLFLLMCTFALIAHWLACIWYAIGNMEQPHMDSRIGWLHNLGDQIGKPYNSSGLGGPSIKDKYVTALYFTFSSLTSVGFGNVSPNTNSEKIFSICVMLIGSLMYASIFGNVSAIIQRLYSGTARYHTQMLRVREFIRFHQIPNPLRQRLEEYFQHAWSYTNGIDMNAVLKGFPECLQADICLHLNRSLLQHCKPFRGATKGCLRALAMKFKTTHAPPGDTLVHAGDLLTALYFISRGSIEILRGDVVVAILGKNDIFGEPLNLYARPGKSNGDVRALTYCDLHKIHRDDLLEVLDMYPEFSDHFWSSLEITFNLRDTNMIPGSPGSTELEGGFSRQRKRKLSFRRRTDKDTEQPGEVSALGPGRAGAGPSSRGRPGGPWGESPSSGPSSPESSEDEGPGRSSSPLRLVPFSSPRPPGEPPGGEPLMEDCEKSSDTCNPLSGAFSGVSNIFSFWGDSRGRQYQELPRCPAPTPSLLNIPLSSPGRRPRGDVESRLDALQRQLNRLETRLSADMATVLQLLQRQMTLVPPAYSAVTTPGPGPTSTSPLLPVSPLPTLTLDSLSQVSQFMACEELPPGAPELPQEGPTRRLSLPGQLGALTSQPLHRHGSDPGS
Cytochrome P450 3A4, sequence (P08684 whole entry): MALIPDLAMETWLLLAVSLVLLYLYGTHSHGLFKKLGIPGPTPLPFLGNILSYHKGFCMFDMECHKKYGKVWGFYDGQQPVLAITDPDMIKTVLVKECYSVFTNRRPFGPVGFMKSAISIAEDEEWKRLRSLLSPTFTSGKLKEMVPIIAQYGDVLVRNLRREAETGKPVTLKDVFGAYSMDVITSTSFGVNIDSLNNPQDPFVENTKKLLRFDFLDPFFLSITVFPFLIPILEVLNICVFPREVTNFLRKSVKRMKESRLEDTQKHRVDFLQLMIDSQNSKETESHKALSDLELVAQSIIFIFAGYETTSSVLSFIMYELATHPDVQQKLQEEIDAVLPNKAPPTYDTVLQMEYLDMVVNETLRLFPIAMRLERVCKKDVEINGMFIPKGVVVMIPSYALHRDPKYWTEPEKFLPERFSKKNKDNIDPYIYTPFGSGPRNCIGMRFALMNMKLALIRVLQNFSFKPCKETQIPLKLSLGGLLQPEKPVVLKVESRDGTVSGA

Structure (SMILES)	efflux ratio at 1 µM (rat P-gp)	IC50 [1] [nM]	IC50 [2] [nM]	IC50 (Cytochrome P450 3A4) [nM]	IC50 [3] [nM]	fVdss [4] [L/kg]	fVdss [5] [L/kg]	Activity [6] [%]	Activity (Neuron)	inhibition [7]	IC50 [8] [nM]	IC50 [9] [nM]	Activity [10]	Activity [11]	fEC50 [11] [nM]	EC50 [12] [nM]
Cl.O=C(N1CCN2CCC1CC2)n1nc(-n2cc(C(F)(F)F)cn2)c2c1COCC2	4.6	32	1970	> 50000	4100	16	49	20	Dose-Dependent Effect	Dose-Dependent Effect	1.7	17				
O=C(N1CCN2CCC1CC2)n1nc(-c2ccc(F)cc2)c2c1COCC2	3.4	34	224	> 50000	2000	17	21						Active	Dose-Dependent Effect	64	320
